Activity calls are given as the source filed them. No cut-off for these calls is given here.
Columns and labels:
[1] = system: SH-SY5Y; assay: Cytotoxicity against human SH-SY5Y cells assessed as reduction in cell viability at 31.25 uM measured after 72 hrs by MTT assay; assay type: cell-based
[2] = system: SH-SY5Y; assay: Cytotoxicity against human SH-SY5Y cells assessed as reduction in cell viability at 7.81 to 15.62 uM measured after 72 hrs by MTT assay; assay type: cell-based; settings: dose 7.81-15.62 µM
[3] = system: SH-SY5Y; assay: Neuroprotective activity against H2O2-induced cytotoxicity in human SH-SY5Y cells assessed as cell viability at 5 uM preincubated for 6 hrs followed by H2O2 addition and measured after 24 hrs by MTT assay (reference value: 20%); assay type: functional; settings: time 30 hrs, read-out: Activity
[4] = biological target: Acetylcholinesterase (Electrophorus electricus) (UniProt O42275); assay: Inhibition of electric eel AChE at 10 uM using acetylthiocholine iodide as substrate preincubated for 5 mins followed by substrate addition and measured after 1 min by Ellman's method relative to control; settings: time 6.0 min
Chain of Acetylcholinesterase (Electrophorus electricus) (O42275 24-633 limits assumed): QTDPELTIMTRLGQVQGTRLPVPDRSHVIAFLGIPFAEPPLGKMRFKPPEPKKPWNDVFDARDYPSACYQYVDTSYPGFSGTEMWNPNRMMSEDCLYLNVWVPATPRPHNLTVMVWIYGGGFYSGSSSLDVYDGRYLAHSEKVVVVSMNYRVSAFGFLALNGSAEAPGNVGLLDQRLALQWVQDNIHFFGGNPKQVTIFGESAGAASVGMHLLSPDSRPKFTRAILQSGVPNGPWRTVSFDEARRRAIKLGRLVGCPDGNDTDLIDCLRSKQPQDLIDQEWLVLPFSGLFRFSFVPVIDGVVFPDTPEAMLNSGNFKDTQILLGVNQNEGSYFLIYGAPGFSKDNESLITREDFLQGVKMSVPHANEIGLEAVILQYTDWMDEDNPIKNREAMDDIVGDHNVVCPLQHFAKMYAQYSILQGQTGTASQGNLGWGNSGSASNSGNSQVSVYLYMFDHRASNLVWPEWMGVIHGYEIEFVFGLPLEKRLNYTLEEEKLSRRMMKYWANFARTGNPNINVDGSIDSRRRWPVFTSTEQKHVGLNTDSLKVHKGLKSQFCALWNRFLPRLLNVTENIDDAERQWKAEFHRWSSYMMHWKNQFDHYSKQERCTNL

[5] = biological target: Acetylcholinesterase (Electrophorus electricus, UniProt O42275); assay: Inhibition of electric eel AChE using acetylthiocholine iodide as substrate preincubated for 5 mins followed by substrate addition and measured after 1 min in presence of H2O2 by Ellman's method
Chain of Acetylcholinesterase (O42275 whole entry): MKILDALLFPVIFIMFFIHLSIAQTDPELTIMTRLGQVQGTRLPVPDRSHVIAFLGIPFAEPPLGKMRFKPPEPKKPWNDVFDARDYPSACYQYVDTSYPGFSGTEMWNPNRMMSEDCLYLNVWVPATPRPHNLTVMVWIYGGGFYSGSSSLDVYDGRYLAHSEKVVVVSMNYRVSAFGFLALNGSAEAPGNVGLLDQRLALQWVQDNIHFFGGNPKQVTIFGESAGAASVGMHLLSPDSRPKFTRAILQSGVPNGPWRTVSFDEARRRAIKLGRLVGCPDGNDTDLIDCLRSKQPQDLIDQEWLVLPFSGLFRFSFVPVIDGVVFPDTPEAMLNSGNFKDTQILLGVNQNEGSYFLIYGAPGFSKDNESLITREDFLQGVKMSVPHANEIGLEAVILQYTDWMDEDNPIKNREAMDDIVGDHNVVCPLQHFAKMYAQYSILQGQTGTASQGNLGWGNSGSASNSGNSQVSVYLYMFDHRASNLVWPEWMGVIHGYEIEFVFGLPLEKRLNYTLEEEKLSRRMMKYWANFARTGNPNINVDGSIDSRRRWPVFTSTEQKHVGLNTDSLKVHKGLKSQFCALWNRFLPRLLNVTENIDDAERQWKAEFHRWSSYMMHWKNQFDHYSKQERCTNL

[6] = Drug uptake in human SH-SY5Y cells at 10 uM measured after 12 hrs by laser scanning confocal microscopic analysis; assay type: ADME, cell-based
[7] = Drug uptake in mouse BV-2 cells at 10 uM measured after 12 hrs by laser scanning confocal microscopic analysis; assay type: ADME, cell-based; settings: bv-2, 12 h
[8] = system: SH-SY5Y; assay: Neuroprotective activity against H2O2-induced cytotoxicity in human SH-SY5Y cells assessed as cell viability at 20 uM preincubated for 6 hrs followed by H2O2 addition and measured after 24 hrs by MTT assay (reference value: 20%); assay type: functional; settings: time 30 hrs, read-out: Activity
[9] = system: BV-2; assay: Antiinflammatory activity in mouse BV-2 cells assessed as reduction in LPS-induced IL1beta mRNA expression preincubated for 6 hrs followed by LPS stimulation and measured after 24 hrs RT-qPCR analysis; assay type: functional, cell-based; settings: dose 5-10 µM, time 30.0 hrs
[10] = system: BV-2; assay: Antiinflammatory activity in mouse BV-2 cells assessed as reduction in LPS-induced TNFalpha mRNA expression preincubated for 6 hrs followed by LPS stimulation and measured after 24 hrs RT-qPCR analysis; assay type: functional, cell-based; settings: dose 5-10 µM, time 30.0 hrs
[11] = system: BV-2; assay: Antiinflammatory activity in mouse BV-2 cells assessed as fold change in LPS-induced IL1beta mRNA expression at 5 uM preincubated for 6 hrs followed by LPS stimulation and measured after 24 hrs RT-qPCR analysis (reference value: 3.68 +/- 0.02); assay type: functional; settings: time 30 hrs
[12] = system: BV-2; assay: Antiinflammatory activity in mouse BV-2 cells assessed as fold change in LPS-induced IL1beta mRNA expression at 10 uM preincubated for 6 hrs followed by LPS stimulation and measured after 24 hrs RT-qPCR analysis (reference value: 3.68 +/- 0.02); assay type: functional; settings: time 30 hrs
[13] = system: BV-2; assay: Antiinflammatory activity in mouse BV-2 cells assessed as fold change in LPS-induced TNFalpha mRNA expression at 5 uM preincubated for 6 hrs followed by LPS stimulation and measured after 24 hrs RT-qPCR analysis (reference value: 3.86 +/- 0.25); assay type: functional; settings: time 30 hrs
[14] = system: BV-2; assay: Antiinflammatory activity in mouse BV-2 cells assessed as fold change in LPS-induced TNFalpha mRNA expression at 10 uM preincubated for 6 hrs followed by LPS stimulation and measured after 24 hrs RT-qPCR analysis (reference value: 3.86 +/- 0.25); assay type: functional; settings: time 30 hrs
[15] = system: BV-2; assay: Antiinflammatory activity in mouse BV-2 cells assessed as reduction in LPS-induced ROS level at 10 uM preincubated for 6 hrs followed by LPS stimulation and measured after 18 hrs by DCFH-DA staining based laser confocal microscopic analysis; assay type: functional, cell-based
[16] = system: SH-SY5Y; assay: Induction of apoptosis in human SH-SY5Y cells assessed as early apoptotic cells at 10 uM incubated for 24 hrs by annexin V FITC/propidium iodide staining based flow cytometry (reference value: […]); assay type: cell-based
[17] = system: SH-SY5Y; assay: Induction of apoptosis in human SH-SY5Y cells assessed as late apoptotic cells at 10 uM incubated for 24 hrs by annexin V FITC/propidium iodide staining based flow cytometry (reference value: […]); assay type: cell-based
[18] = system: SH-SY5Y; assay: Induction of apoptosis in human SH-SY5Y cells assessed as necrotic cells at 10 uM incubated for 24 hrs by annexin V FITC/propidium iodide staining based flow cytometry (reference value: 0.8 %); assay type: cell-based
[19] = system: SH-SY5Y; assay: Neuroprotective activity against H2O2-induced apoptosis in human SH-SY5Y cells assessed as viable cells at 5 uM preincubated for 6 hrs followed by H2O2 addition and measured after 24 hrs by annexin V FITC/propidium iodide staining based flow cytometry (reference value: 41.7%); assay type: functional; settings: time 30 hrs, read-out: Activity
[20] = system: SH-SY5Y; assay: Neuroprotective activity against H2O2-induced apoptosis in human SH-SY5Y cells assessed as early apoptotic cells at 5 uM preincubated for 6 hrs followed by H2O2 addition and measured after 24 hrs by annexin V FITC/propidium iodide staining based flow cytometry (reference value: 0.9%); assay type: functional; settings: time 30 hrs
[21] = system: SH-SY5Y; assay: Neuroprotective activity against H2O2-induced apoptosis in human SH-SY5Y cells assessed as late apoptotic cells at 5 uM preincubated for 6 hrs followed by H2O2 addition and measured after 24 hrs by annexin V FITC/propidium iodide staining based flow cytometry (reference value: 13.1%); assay type: functional; settings: time 30 hrs
[22] = system: SH-SY5Y; assay: Neuroprotective activity against H2O2-induced apoptosis in human SH-SY5Y cells assessed as necrotic cells at 5 uM preincubated for 6 hrs followed by H2O2 addition and measured after 24 hrs by annexin V FITC/propidium iodide staining based flow cytometry (reference value: 44.3%); assay type: functional; settings: time 30 hrs
[23] = system: SH-SY5Y; assay: Neuroprotective activity against H2O2-induced apoptosis in human SH-SY5Y cells assessed as viable cells at 10 uM preincubated for 6 hrs followed by H2O2 addition and measured after 24 hrs by annexin V FITC/propidium iodide staining based flow cytometry (reference value: 41.7%); assay type: functional; settings: time 30 hrs, read-out: Activity
[24] = system: SH-SY5Y; assay: Neuroprotective activity against H2O2-induced apoptosis in human SH-SY5Y cells assessed as early apoptotic cells at 10 uM preincubated for 6 hrs followed by H2O2 addition and measured after 24 hrs by annexin V FITC/propidium iodide staining based flow cytometry (reference value: 0.9%); assay type: functional; settings: time 30 hrs
[25] = system: SH-SY5Y; assay: Neuroprotective activity against H2O2-induced apoptosis in human SH-SY5Y cells assessed as late apoptotic cells at 10 uM preincubated for 6 hrs followed by H2O2 addition and measured after 24 hrs by annexin V FITC/propidium iodide staining based flow cytometry (reference value: 13.1%); assay type: functional; settings: time 30 hrs
[26] = system: SH-SY5Y; assay: Neuroprotective activity against H2O2-induced apoptosis in human SH-SY5Y cells assessed as necrotic cells at 10 uM preincubated for 6 hrs followed by H2O2 addition and measured after 24 hrs by annexin V FITC/propidium iodide staining based flow cytometry (reference value: 44.3%); assay type: functional; settings: time 30 hrs
[27] = system: SH-SY5Y; assay: Neuroprotective activity against H2O2-induced apoptosis in human SH-SY5Y cells assessed as increase in viable cells preincubated for 6 hrs followed by H2O2 addition and measured after 24 hrs by annexin V FITC/propidium iodide staining based flow cytometry; assay type: functional, cell-based; settings: dose 5-10 µM, time 30.0 hrs
[28] = system: HepG2; assay: Hepatotoxicity in human HepG2 cells assessed as increase in ROS accumulation by measuring increase in green fluorescence at 25 to 50 uM measured after 24 hrs by ROS tracker based laser confocal microscopic analysis; assay type: toxicity, cell-based; settings: hepg2, 24 h, dose 25-50 µM
[29] = system: SH-SY5Y; assay: Neuroprotective activity against H2O2-induced apoptosis in human SH-SY5Y cells assessed as reduction in cells with red fluorescence at 10 uM preincubated for 6 hrs followed by H2O2 addition and measured after 24 hrs by calcein AM/propidium iodide staining based laser confocal microscope; assay type: functional, cell-based; settings: time 30.0 hrs
[30] = system: SH-SY5Y; assay: Neuroprotective activity against H2O2-induced apoptosis in human SH-SY5Y cells assessed as reduction in Bax expression preincubated for 6 hrs followed by H2O2 addition and measured after 24 hrs by Western blot analysis; assay type: functional, cell-based; settings: dose 5-10 µM, time 30.0 hrs
[31] = system: SH-SY5Y; assay: Neuroprotective activity against H2O2-induced apoptosis in human SH-SY5Y cells assessed as reduction in cleaved caspase-3 expression preincubated for 6 hrs followed by H2O2 addition and measured after 24 hrs by Western blot analysis; assay type: functional, cell-based; settings: dose 5-10 µM, time 30.0 hrs
[32] = system: SH-SY5Y; assay: Neuroprotective activity against H2O2-induced apoptosis in human SH-SY5Y cells assessed as increase in Bcl-2 expression preincubated for 6 hrs followed by H2O2 addition and measured after 24 hrs by Western blot analysis; assay type: functional, cell-based; settings: dose 5-10 µM, time 30.0 hrs
[33] = system: Rattus norvegicus; assay: Cognitive enhancing effect in Sprague-Dawley rat model of amyloid beta (25 to 35) peptide-induced memory impairment assessed as reduction in escape latency time at 0.9 mg per 100 g, […] qd for 4 weeks administered via gavage and measured after 4 to 5 days by Morris water maze test; assay type: functional, organism-based; settings: time 32-33 day
[34] = system: Rattus norvegicus; assay: Cognitive enhancing effect in Sprague-Dawley rat model of amyloid beta (25 to 35) peptide-induced memory impairment assessed as time spent in target platform at 0.9 mg per 100 g, […] qd for 4 weeks administered via gavage and measured after 5 days by Morris water maze test (reference value: 0.5 sec); assay type: functional; settings: time 33 day
[35] = system: Rattus norvegicus; assay: Cognitive enhancing effect in Sprague-Dawley rat model of amyloid beta (25 to 35) peptide-induced memory impairment assessed as number of platform crossing at 0.9 mg per 100 g, […] qd for 4 weeks administered via gavage and measured after 5 days by Morris water maze test (reference value: 0.4); assay type: functional; settings: time 33 day
[36] = Prodrug activation assessed as hydrolysis of benzyl ester bonds in presence of H2O2 by 1H-NMR analysis
[37] = in vitro; settings: human, SH-SY5Y cells
[38] = system: SH-SY5Y; assay: Neuroprotective activity against H2O2-induced apoptosis in human SH-SY5Y cells assessed as reduction in Bax expression at 10 uM preincubated for 6 hrs followed by H2O2 addition and measured after 24 hrs by Western blot analysis; assay type: functional, cell-based; settings: time 30.0 hrs
[39] = system: SH-SY5Y; assay: Neuroprotective activity against H2O2-induced apoptosis in human SH-SY5Y cells assessed as reduction in cleaved caspase-3 expression at 10 uM preincubated for 6 hrs followed by H2O2 addition and measured after 24 hrs by Western blot analysis; assay type: functional, cell-based; settings: time 30.0 hrs
[40] = system: SH-SY5Y; assay: Neuroprotective activity against H2O2-induced apoptosis in human SH-SY5Y cells assessed as increase in Bcl-2 expression at 10 uM preincubated for 6 hrs followed by H2O2 addition and measured after 24 hrs by Western blot analysis; assay type: functional, cell-based; settings: time 30.0 hrs
[41] = system: SH-SY5Y; assay: Cytotoxicity against human SH-SY5Y cells assessed as reduction in cell viability at 7.81 to 31.25 uM measured after 72 hrs by MTT assay; assay type: cell-based; settings: dose 7.81-31.25 µM

## Cc1cc(COC(=O)NCCCCNc2c3c(nc4ccccc24)CCCC3)c(OCc2ccc(B3OC(C)(C)C(C)(C)O3)cc2)c(COC(=O)C(C)c2ccc(CC(C)C)cc2)c1 (stereo not given)
[1]
  Activity: Toxic
[2]
  Activity: Non-Toxic
[3]
  viability at 5 µM: > 50%
[4]
  inhibition: 46%
[5]
  IC50: 80 nM

## Cc1cc(COC(=O)CCCCCOc2ccc3ccc(=O)oc3c2)c(OCc2ccc(B3OC(C)(C)C(C)(C)O3)cc2)c(COC(=O)C(C)c2ccc(CC(C)C)cc2)c1 (stereo not given)
[6]
  Drug uptake: Active
[7]
  Drug uptake: Active

## Cc1cc(COC(=O)NCCCCCCNc2c3c(nc4ccccc24)CCCC3)c(OCc2ccc(B3OC(C)(C)C(C)(C)O3)cc2)c(COC(=O)C(C)c2ccc(CC(C)C)cc2)c1 (stereo not given)
[1]
  Activity: Non-Toxic
[3]
  viability at 5 µM: > 50%
[8]
  viability at 20 µM: > 80%
[4]
  inhibition: 47.2%
[5]
  IC50: 39.2 nM
[9]
  Activity: Dose-dependent effect
[10]
  Activity: Dose-dependent effect
[11]
  fold change (FC): 1.36
[12]
  fold change (FC): 0.86
[13]
  fold change (FC): 1.6
[14]
  fold change (FC): 1.2
[15]
  Activity: Active
[16]
  Activity: 1.65%
[17]
  Activity: 2.57%
[18]
  Activity: 2.48%
[19]
  viability at 5 µM: 73.7%
[20]
  Activity: 1.75%
[21]
  Activity: 10.5%
[22]
  Activity: 14.1%
[23]
  viability at 10 µM: 86.6%
[24]
  Activity: 1.17%
[25]
  Activity: 4.97%
[26]
  Activity: 7.3%
[27]
  Activity: Dose-dependent effect
[28]
  Activity: Toxic
[29]
  Activity: Active
[30]
  Activity: Dose-dependent effect
[31]
  Activity: Dose-dependent effect
[32]
  Activity: Dose-dependent effect
[33]
  Activity: Active
[34]
  Time: 2.2 s
[35]
  Activity: 4.2
[36]
  Drug metabolism: Metabolite_Detected
[37]
  viability at 24 h, 5 µM: 90.4%

## COc1cc(/C=C/C(=O)O)ccc1O
[38]
  Activity: Active
[39]
  Activity: Active
[40]
  Activity: Active

## Cc1cc(COC(=O)NCCCNc2c3c(nc4ccccc24)CCCC3)c(OCc2ccc(B3OC(C)(C)C(C)(C)O3)cc2)c(COC(=O)C(C)c2ccc(CC(C)C)cc2)c1 (stereo not given)
[41]
  Activity: Toxic
[3]
  viability at 5 µM: > 50%
[8]
  viability at 20 µM: > 80%
[4]
  inhibition: 32.9%
[5]
  IC50: 302 nM

## Cc1cc(COC(=O)NCCNc2c3c(nc4ccccc24)CCCC3)c(OCc2ccc(B3OC(C)(C)C(C)(C)O3)cc2)c(COC(=O)C(C)c2ccc(CC(C)C)cc2)c1 (stereo not given)
[1]
  Activity: Toxic
[2]
  Activity: Non-Toxic
[3]
  viability at 5 µM: > 50%
[8]
  viability at 20 µM: > 80%
[4]
  inhibition: 28.2%
[5]
  IC50: 608 nM

Reference: ChEMBL document CHEMBL4732099, “ROS-responsive and multifunctional anti-Alzheimer prodrugs: Tacrine-ibuprofen hybrids via a phenyl boronate linker” (Eur J Med Chem, 2021)
